Experimental data taken from patent US20090246292A1, “ANTIMICROBIAL FORMULATIONS COMPRISING A QUINONE AND A COPPER SALT” (priority 2006, published 2009).
Several values for one entry are separate records, joined by “and”; a condition that tells them apart may be missing. Identical values can stand only once.

Tests used:
P. acnes NCTC 737 [1] = test: Minimum inhibitory concentration (MIC) assay; type: cell-based, Propionibacterium acnes
Description: (a) Minimum Inhibitory Concentration (MIC) Assay
The culture media were as described above.
The assays included both negative (culture medium with no micro-organisms) and positive (culture medium plus diluting solvent plus micro-organism) controls.

P. acnes NCTC 737 [2] = test: Minimum bactericidal concentration (MBC) assay; type: cell-based, Propionibacterium acnes
Experimental: (§1) (b) Minimum Bactericidal Concentration (MBC) Assay
(§2) Following incubation they were examined visually for bacterial growth.

S. aureus ATCC 29213 [3] = test: Minimum bactericidal concentration (MBC) assay; type: cell-based, Staphylococcus aureus
Experimental: as §1, §2

P. granulosum NCTC 11865 = test: Disc diffusion assay (DDA), also supplemented; type: cell-based; conditions: 200 μg per disc
Experimental: (§3) The propionibacteria were cultured and maintained on Wilkins-Chalgren Anaerobe Medium (agar and broth) at pH 6.0; all cultures were incubated anaerobically at 37° C. for 72 hours.
(§4) A sterile paper disc was impregnated with a sample of the test compound in a suitable solvent and 30 minutes allowed for the solvents to evaporate (where possible). The disc was then placed on an agar plate onto which the test micro-organism had been inoculated. The plate was then incubated under the conditions described above, following which it was examined visually for signs of bacterial growth. […] The diameter of this zone of “inhibition” was measured using a ProtoCOL™ automated zone sizer (Synbiosis, Cambridge, UK).
(§5) For assays using Propionibacterium spp. strains the supplements used in the examples below were lipid (either Tween™ 80 or triolein, both at 1% v/v) and sodium chloride (100 mM).

P. acnes PRP-002 = test: Disc diffusion assay (DDA), also supplemented; type: cell-based, Propionibacterium acnes; conditions: 200 μg per disc
Experimental: as §3, §4, §5

P. acnes PRP-004 = test: Disc diffusion assay (DDA), also supplemented; type: cell-based, Propionibacterium acnes; conditions: 200 μg per disc
Experimental: as §3, §4, §5

P. granulosum PRP-005 = test: Disc diffusion assay (DDA), also supplemented; type: cell-based; conditions: 200 μg per disc
Experimental: as §3, §4, §5

P. granulosum PRP-006 = test: Disc diffusion assay (DDA), also supplemented; type: cell-based; conditions: 200 μg per disc
Experimental: as §3, §4, §5

P. acnes PRP-007 = test: Disc diffusion assay (DDA), also supplemented; type: cell-based, Propionibacterium acnes; conditions: 200 μg per disc
Experimental: as §3, §4, §5

P. acnes PRP-008 = test: Disc diffusion assay (DDA), also supplemented; type: cell-based, Propionibacterium acnes; conditions: 200 μg per disc
Experimental: as §3, §4, §5

P. acnes PRP-010 = test: Disc diffusion assay (DDA), also supplemented; type: cell-based, Propionibacterium acnes; conditions: 200 μg per disc
Experimental: as §3, §4, §5

P. granulosum PRP-019 = test: Disc diffusion assay (DDA), also supplemented; type: cell-based; conditions: 200 μg per disc
Experimental: as §3, §4, §5

P. granulosum PRP-021 = test: Disc diffusion assay (DDA), also supplemented; type: cell-based; conditions: 200 μg per disc
Experimental: as §3, §4, §5

P. acnes PRP-023 = test: Disc diffusion assay (DDA), also supplemented; type: cell-based, Propionibacterium acnes; conditions: 200 μg per disc
Experimental: as §3, §4, §5

P. granulosum PRP-043 = test: Disc diffusion assay (DDA), also supplemented; type: cell-based; conditions: 200 μg per disc
Experimental: as §3, §4, §5

P. granulosum PRP-044 = test: Disc diffusion assay (DDA), also supplemented; type: cell-based; conditions: 200 μg per disc
Experimental: as §3, §4, §5

P. acnes PRP-046 = test: Disc diffusion assay (DDA), also supplemented; type: cell-based, Propionibacterium acnes; conditions: 200 μg per disc
P. acnes PRP-053 = test: Disc diffusion assay (DDA), also supplemented; type: cell-based, Propionibacterium acnes; conditions: 200 μg per disc
Experimental: as §3, §4, §5

P. granulosum PRP-055 = test: Disc diffusion assay (DDA), also supplemented; type: cell-based; conditions: 200 μg per disc
Experimental: as §3, §4, §5

P. acnes PRP-059 = test: Disc diffusion assay (DDA), also supplemented; type: cell-based, Propionibacterium acnes; conditions: 200 μg per disc
Experimental: as §3, §4, §5

P. acnes PRP-101 = test: Disc diffusion assay (DDA), also supplemented; type: cell-based, Propionibacterium acnes; conditions: 200 μg per disc
Experimental: as §3, §4, §5

P. acnes PRP-102 = test: Disc diffusion assay (DDA), also supplemented; type: cell-based, Propionibacterium acnes; conditions: 200 μg per disc
Experimental: as §3, §4, §5

[4] = test system: panel of different propionibacterium strains; test: MIC by agar dilution and (S)DDA, whole panel; type: cell-based, Propionibacterium spp; conditions: compound alone; also under supplemented conditions
Experimental: For (S)DDA experiments 200 μg of each test compound was added per disc. […] MIC experiments were performed in duplicate, DDA experiments as single replicates only. SDDA experiments were conducted in triplicate.
The activity of the salt (MIC by agar dilution and DDA) was also determined against a panel of different propionibacterium strains. Supplemented DDA experiments were also carried out. […] DMSO was used as the diluting solvent. MIC experiments were performed in duplicate and DDA experiments as single replicates only.

P. acnes NCTC 737 [5] = test: Disc diffusion assay (DDA), also supplemented;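 also: paper disc carrying compound placed on inoculated Wilkins-Chalgren Anaerobe agar pH 6.0, with lipid or NaCl supplement where listed, anaerobic 37 °C for 72 h, inhibition zone diameter read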
S. aureus ATCC 29213 [6] = test: Disc diffusion assay (DDA), also supplemented
P. acnes NCTC 737 [7] = test: Synergy disc diffusion assay (SDDA), also supplemented
Experimental: as §3
(e) Synergy Disc Diffusion Assay (SDDA)
This is a variation on the DDA method, in which two compounds are tested together for their combined antimicrobial activity.
Two test compounds A and B were placed on a single paper disc and the above described DDA procedure repeated.
(f) Supplemented Disc Diffusion Assays
as §5

O.O.O.O.O.O=S(=O)([O-])[O-].[Cu+2] [Copper (II) sulphate pentahydrate]
MIC (P. acnes NCTC 737 [1]): 15.6 µg/mL
MIC/MBC ratio (P. acnes NCTC 737 [1]): 0.125
MBC (P. acnes NCTC 737 [2]): 125 µg/mL
MBC (S. aureus ATCC 29213 [3]): >250 µg/mL
DDA + salt (P. granulosum NCTC 11865): 48.34 mm
DDA + lipid (P. granulosum NCTC 11865; 1% (v/v) triolein): 41.65 mm
DDA (P. granulosum NCTC 11865; single replicate): 48.34 mm
DDA (P. granulosum NCTC 11865; Table 12 series): 53.32 mm
DDA + salt (P. acnes PRP-002): 50.77 mm
DDA + lipid (P. acnes PRP-002; 1% (v/v) triolein): 47.13 mm
DDA (P. acnes PRP-002; single replicate): 49.25 mm
DDA (P. acnes PRP-002; Table 12 series): 57.92 mm
DDA + salt (P. acnes PRP-004): 52.60 mm
DDA + lipid (P. acnes PRP-004; 1% (v/v) triolein): 45.61 mm
DDA (P. acnes PRP-004; single replicate): 51.08 mm
DDA (P. acnes PRP-004; Table 12 series): 44.85 mm
DDA + salt (P. granulosum PRP-005): 29.19 mm
DDA + lipid (P. granulosum PRP-005; 1% (v/v) triolein): 24.32 mm
DDA (P. granulosum PRP-005; single replicate): 24.02 mm
DDA (P. granulosum PRP-005; Table 12 series): 22.48 mm
DDA + salt (P. granulosum PRP-006): 37.09 mm
DDA + lipid (P. granulosum PRP-006; 1% (v/v) triolein): 30.71 mm
DDA (P. granulosum PRP-006; single replicate): 31.62 mm
DDA (P. granulosum PRP-006; Table 12 series): 27.91 mm
DDA + salt (P. acnes PRP-007): 55.03 mm
DDA + lipid (P. acnes PRP-007; 1% (v/v) triolein): 48.95 mm
DDA (P. acnes PRP-007; single replicate): 56.55 mm
DDA (P. acnes PRP-007; Table 12 series): 40.35 mm
DDA + salt (P. acnes PRP-008): 51.99 mm
DDA + lipid (P. acnes PRP-008; 1% (v/v) triolein): 48.65 mm
DDA (P. acnes PRP-008; single replicate): 52.29 mm
DDA (P. acnes PRP-008; Table 12 series): 43.70 mm
DDA + salt (P. acnes PRP-010): 62.33 mm
DDA + lipid (P. acnes PRP-010; 1% (v/v) triolein): 46.82 mm
DDA (P. acnes PRP-010; single replicate): 63.24 mm
DDA (P. acnes PRP-010; Table 12 series): 46.73 mm
DDA + salt (P. granulosum PRP-019): 25.84 mm
DDA + lipid (P. granulosum PRP-019; 1% (v/v) triolein): 24.02 mm
DDA (P. granulosum PRP-019; single replicate): 22.80 mm
DDA (P. granulosum PRP-019; Table 12 series): 24.15 mm
DDA + salt (P. granulosum PRP-021): 32.84 mm
DDA + lipid (P. granulosum PRP-021; 1% (v/v) triolein): 28.28 mm
DDA (P. granulosum PRP-021; single replicate): 27.67 mm
DDA (P. granulosum PRP-021; Table 12 series): 29.59 mm
DDA + salt (P. acnes PRP-023): 51.38 mm
DDA + lipid (P. acnes PRP-023; 1% (v/v) triolein): 47.43 mm
DDA (P. acnes PRP-023; single replicate): 47.13 mm
DDA (P. acnes PRP-023; Table 12 series): 60.95 mm
DDA + salt (P. granulosum PRP-043): 50.17 mm
DDA + lipid (P. granulosum PRP-043; 1% (v/v) triolein): 41.35 mm
DDA (P. granulosum PRP-043; single replicate): 46.82 mm
DDA (P. granulosum PRP-043; Table 12 series): 56.56 mm
DDA + salt (P. granulosum PRP-044): 31.92 mm
DDA + lipid (P. granulosum PRP-044; 1% (v/v) triolein): 26.45 mm
DDA (P. granulosum PRP-044; single replicate): 27.36 mm
DDA (P. granulosum PRP-044; Table 12 series): 27.81 mm
DDA + salt (P. acnes PRP-046): 63.54 mm
DDA + lipid (P. acnes PRP-046; 1% (v/v) triolein): 60.81 mm
DDA (P. acnes PRP-046; single replicate): 53.81 mm
DDA (P. acnes PRP-046; Table 12 series): 50.29 mm
DDA + salt (P. acnes PRP-053): 54.42 mm
DDA + lipid (P. acnes PRP-053; 1% (v/v) triolein): 51.08 mm
DDA (P. acnes PRP-053; single replicate): 43.78 mm
DDA (P. acnes PRP-053; Table 12 series): 50.18 mm
DDA + salt (P. granulosum PRP-055): 28.88 mm
DDA + lipid (P. granulosum PRP-055; 1% (v/v) triolein): 27.97 mm
DDA (P. granulosum PRP-055; single replicate): 27.67 mm
DDA (P. granulosum PRP-055; Table 12 series): 31.78 mm
DDA + salt (P. acnes PRP-059): 55.33 mm
DDA + lipid (P. acnes PRP-059; 1% (v/v) triolein): 48.95 mm
DDA (P. acnes PRP-059; single replicate): 48.04 mm
DDA (P. acnes PRP-059; Table 12 series): 50.70 mm
DDA + salt (P. acnes PRP-101): 53.21 mm
DDA + lipid (P. acnes PRP-101; 1% (v/v) triolein): 55.03 mm
DDA (P. acnes PRP-101; single replicate): 45.30 mm
DDA (P. acnes PRP-101; Table 12 series): 43.49 mm
DDA + salt (P. acnes PRP-102): 49.25 mm
DDA + lipid (P. acnes PRP-102; 1% (v/v) triolein): 50.77 mm
DDA (P. acnes PRP-102; single replicate): 46.52 mm
DDA (P. acnes PRP-102; Table 12 series): 51.65 mm
activity against propionibacterium strains tested (in words) [4]: excellent level of activity
DDA (P. acnes NCTC 737 [5]): 49.75 mm and 42.05 (±1.16) mm
DDA + lipid (P. acnes NCTC 737 [5]): 44.03 mm
DDA + salt (P. acnes NCTC 737 [5]): 50.28 mm
DDA + salt & lipid (P. acnes NCTC 737 [5]): 49.96 mm and 49.54 (±1.34) mm
DDA (S. aureus ATCC 29213 [6]): 0 mm and 0.00 (±0.00) mm
DDA + lipid (S. aureus ATCC 29213 [6]): 0 mm
DDA + salt (S. aureus ATCC 29213 [6]): 0 mm
DDA + salt & serum (S. aureus ATCC 29213 [6]): 0 mm and 0.00 (±0.00) mm
SDDA area increase (P. acnes NCTC 737 [7]): 108.63%
SDDA increase (P. acnes NCTC 737 [7]): 22.11 mm
SDDA with TBHQ (P. acnes NCTC 737 [7]): 71.86 mm
SL SDDA area increase (P. acnes NCTC 737 [7]): 64.85%
SL SDDA increase (P. acnes NCTC 737 [7]): 14.18 mm
SL SDDA with TBHQ (P. acnes NCTC 737 [7]): 64.14 mm
